The test system of data set [1] is Bacillus subtilis ATCC 6633. In words: Antimicrobial activity (MIC), Table 1. The data set is classed as cell-based. The settings on record: ATCC6633, read-out: Minimum growth inhibitory concentration.
The test system of data set [2] is Streptococcus pyogenes N.Y.5. The data set is described as follows: Antimicrobial activity (MIC), Table 1. The class given is cell-based. As to conditions: read-out: Minimum growth inhibitory concentration.
In a further data set the test system is mice. In words: Acute toxicity. The data set is classed as in vivo. The settings on record: ip, 10 per group, mice surviving at this dose. The method, then:
(16) Acute toxicity: 300 mg/kg (ip) with surviving mice (10 mice per one group).

Data set [3] can be described thus: Distinction of acidic or basic. The class given is physicochemical.
Data set [4] concerns Staphylococcus epidermidis ATCC 27626. In words: Antimicrobial activity (MIC), Table 1. The class given is cell-based. As to conditions: ATCC27626, read-out: Minimum growth inhibitory concentration.
The subject of data set [5] is Staphylococcus aureus FDA 209P JC-1. The data set is described as follows: Antimicrobial activity (MIC), Table 1. The class given is cell-based. As to conditions: FDA209P, read-out: Minimum growth inhibitory concentration.
In data set [6] the test system is Klebsiella pneumoniae NCTC 9632. In words: Antimicrobial activity (MIC), Table 1. As to conditions: NCTC9632, read-out: Minimum growth inhibitory concentration. The data set is classed as cell-based.
The subject of another data set is Gram-positive bacteria. The data set is described as follows: Antibacterial activity. The class given is cell-based.
The nature of the next data set: Solubility. The data set is classed as physicochemical.
For the next data set, the system named is Sarcina lutea ATCC 9341. The data set is described as follows: Antimicrobial activity (MIC), Table 1. The data set is classed as cell-based. As to conditions: Micrococcus luteus, ATCC9341, read-out: Minimum growth inhibitory concentration.
Data set [7] deals with Escherichia coli NIHJ JC-2. In words: Antimicrobial activity (MIC), Table 1. The class given is cell-based. The settings on record: NIHJJC2, read-out: Minimum growth inhibitory concentration.
In data set [8] the test system is Pseudomonas aeruginosa IAM 1095. In words: Antimicrobial activity (MIC), Table 1. The data set is classed as cell-based. As to conditions: IAM1095, read-out: Minimum growth inhibitory concentration.
In data set [9] the test system is Streptococcus agalactiae 1020. The data set is described as follows: Antimicrobial activity (MIC), Table 1. The settings on record: read-out: Minimum growth inhibitory concentration. The class given is cell-based.
Data set [10] has as its system Saccharopolyspora sp. L53-18. The data set is described as follows: Resistance to antibiotic (MIC), Table 3. The data set is classed as cell-based. From the text:
[according to J. Antibiot. 32: 180-186 (1976)]

Data set [11] relates to Saccharopolyspora sp. L53-18. In words: Resistance to lysozyme. The class given is cell-based. The settings on record: producing strain L53-18. From the text:
(8) Resistance to lysozyme: sensitive [Inter. J. System. Bacteriol. 27: 176-178 (1977)]

Where [12] appears, read: resistance of producing strain L53-18 to antibiotics, read-out: MIC.
[13] abbreviates: resistance of producing strain L53-18 to antibiotics.

Values after ≈ are worked out from the molar mass of the structure shown. Like-named read-outs stand apart in the source and are kept apart here. Bounds are passed on as bounds.

With `CC[C@H]1OC(=O)[C@H](C)[C@@H](O[C@H]2C[C@@](C)(OC)[C@@H](O)[C@H](C)O2)[C@H](C)[C@@H](O[C@@H]2O[C@H](C)C[C@H](N(C)C)[C@H]2O)[C@](C)(O)C[C@@H](C)C2=C(C)C(=O)[C@]1(C)O2` [Antibiotic L53-18A], the MIC was below 0.05 mg/L in data set [1]; below 0.05 mg/L in data set [2]; 0.2 mg/L (≈ 0.28 µM) in [4]; 0.2 mg/L (≈ 0.28 µM) in data set [5]; above 100 mg/L in [6]; below 0.05 mg/L in the data set on Sarcina lutea ATCC 9341. Moreover, the MIC in [7] was above 100 mg/L; in data set [8] it was above 100 mg/L; in [9] it was below 0.05 mg/L. The “Acute toxicity (dose with surviving mice)” value with mice came out at 300 mg/kg. The “Distinction of acidic or basic” value in data set [3] is recorded as “basic”. Moreover, the “antibacterial activity to Gram-positive bacteria” value in the data set with Gram-positive bacteria is given as “shows antibacterial activity to Gram-positive bacteria”. The Solubility result in the data set “Solubility” is “Soluble in methanol, ethanol, acetone, ethyl acetate, chloroform, benzene and acidic water”.
In data set [10], `NC[C@H]1O[C@H](O[C@H]2[C@H](O)[C@@H](O[C@H]3O[C@H](CO)[C@@H](O)[C@H](N)[C@H]3O)[C@H](N)C[C@@H]2N)[C@H](O)[C@@H](O)[C@@H]1O` [Kanamycin] gave an MIC of 63 mg/L (≈ 130 µM).
Take `CCCC(=O)O[C@H]1[C@H](C)O[C@@H](O[C@H]2[C@H](N(C)C)[C@@H](O)[C@H](O[C@H]3[C@@H](CC=O)C[C@@H](C)[C@@H](O)/C=C/C=C/C[C@@H](C)OC(=O)C[C@@H](O)[C@@H]3OC)O[C@@H]2C)C[C@@]1(C)O` [Leucomycin A5]: the MIC in data set [10] (setting [12]) was above 1000 mg/L.
Turning to `NC[C@@H]1O[C@H](O[C@H]2[C@@H](O)[C@H](O[C@@H]3[C@@H](O)[C@H](N)C[C@H](N)[C@H]3O[C@H]3O[C@H](CO)[C@@H](O)[C@H](O)[C@H]3N)O[C@@H]2CO)[C@H](N)[C@@H](O)[C@@H]1O` [Paromomycin], the MIC in [10] (setting [12]) came out at 31 mg/L (≈ 50.4 µM).
On the same count and under the same terms, in the case of `CO[C@H]1/C=C/O[C@@]2(C)Oc3c(C)c(O)c4c(O)c(c(/C=N/N5CCN(C)CC5)c(O)c4c3C2=O)NC(=O)/C(C)=C\C=C\[C@H](C)[C@H](O)[C@@H](C)[C@@H](O)[C@@H](C)[C@H](OC(C)=O)[C@@H]1C` [Rifampicin] it was below 16 mg/L; in that of `CN[C@@H]1[C@H](O)[C@H](NC)[C@H]2O[C@@]3(O)C(=O)C[C@@H](C)O[C@H]3O[C@@H]2[C@H]1O` [Spectinomycin], above 1000 mg/L; in that of `[H]/N=C(/N)N[C@H]1[C@H](O)[C@@H](O)[C@H](O[C@@H]2O[C@@H](C)[C@](O)(C=O)[C@H]2O[C@@H]2O[C@@H](CO)[C@H](O)[C@@H](O)[C@@H]2NC)[C@@H](N/C(N)=N\[H])[C@@H]1O` [Streptomycin], 31 mg/L (≈ 53.3 µM).
With Gentamicin, the MIC in data set [10] (setting [13]) is 16 mg/L.
The same measure, in the same setting: in the case of Neomycin it was 63 mg/L.
Regarding lysozyme, in data set [11], the Resistance to lysozyme entry is on record as “sensitive”.

The values are drawn from patent US5081023A, “Antibiotic L53-18A and process for preparation thereof” (Toyo Yozo Company, Ltd., priority 1989, dated 1992).
